From patent US4826819A, “Piperidine analgesics” (priority 1986, dated 1989)
Counter-ions that a name gives are not always drawn. Like-named read-outs stand apart in the source and are kept apart here.

Key:
[1] = Mouse Tail-flick test (analgesic activity); assay type: in vivo, mouse (male Charles River mice); details: for % Protection (percent number of mice doubling the initial reaction time): 1 mg Kg^-1, 30 min after dosing
[2] = target: T1, μ opioid receptor (μ sites) (Cavia porcellus, UniProt A0ACM8Q262); assay: Opiate receptor binding to μ sites (3H-DAGO)
T1 construct: 3H-DAGO displacement
Procedure: (§1) Radio receptor binding to μ and k sites is performed on fresh guinea pig brain homogenate prepared according to Kosterlitz. (1981).
(§2) Whole brain without cerebellum is homogenized in 50 mM, Tris-buffer (pH 7.4 at 0° C.) and centrifuged at 49,000×g×10 min. The pellet is then resuspended in the same buffer, incubated at 37° C. for 45 min. and centrifuged again.
(§3) 1.9 ml of the final homogenate (1:100 in Tris-pH 7.4, 0° C.) is used for the binding assay.
Binding to μ sites (Magnan J., 1982)
^3 H [D-Ala^2, MePhe^4, Gly-ol^5 ] Enkephalin (^3 H-DAGO), an enkephalin analogue that binds selectively to μ-receptors, is added to the biological substrate and incubated at 25° C. for 40 min., filtered through Whatman GF-C and washed with ice-cold Tris-buffer.
The filters are then dried, solubilized in Filtercount and the radioactivity monitored. Non specific binding is determined in the presence of 10^-6 M Naloxone.
(§4) For the calculation of the kinetic parameters of the binding of labelled and unlabelled ligands, the equilibrium dissociation constant (KD), and the inhibition constant (Ki) and the maximum number of binding sites (B max) are determined from saturation curves and competition experiments (Hill 1910; Scatchard 1949; Cheng and Prusoff 1973; Gillan et al. 1980).
(§5) A concentration of radioligand near KD is used in the binding assays evaluating our compounds.

[3] = target: T2, K (Kappa) opioid receptor (K sites) (Cavia porcellus, UniProt P41144); assay: Opiate receptor binding to K sites (tritiated Ethylketocyclazocine); design: species or system guinea pig
T2 construct: performed on fresh guinea pig brain homogenate; from tissue; host or cells: guinea pig whole brain without cerebellum, homogenate
Procedure: as §1, §2, §3
Binding to K sites (Magnan J., 1982)
The binding of tritiated Ethylketocyclazocine to brain homogenate is measured in the presence of 100 nanomolar D-Ala-D-LeuEnkephalin (DADLE) and 100 nanomolar DAGO, added to saturate the δ and μ opioid receptors respectively.
Final homogenate with solutions of the cold ligand and of the labelled ligand is incubated for 40 min at 25° C., filtered through Whatman GF/C glass filter discs and washed.
The radioactivity bound to the filters is counted by liquid scintillation spectrophotometry.
MR 2266,500 nM is utilized to determine the saturable binding.
as §4, §5

[4] = sc, 0.5 h, subcutaneous, read-out: ED50 subcutaneous
[5] = guinea pig brain homogenate, 25° C., 40 min, read-out: Ki, opiate receptor binding, μ
[6] = guinea pig brain homogenate, tritiated Ethylketocyclazocine with 100 nM DADLE and 100 nM DAGO, 25° C., 40 min, read-out: Ki, opiate receptor binding, K

T2 sequence (P41144 whole entry): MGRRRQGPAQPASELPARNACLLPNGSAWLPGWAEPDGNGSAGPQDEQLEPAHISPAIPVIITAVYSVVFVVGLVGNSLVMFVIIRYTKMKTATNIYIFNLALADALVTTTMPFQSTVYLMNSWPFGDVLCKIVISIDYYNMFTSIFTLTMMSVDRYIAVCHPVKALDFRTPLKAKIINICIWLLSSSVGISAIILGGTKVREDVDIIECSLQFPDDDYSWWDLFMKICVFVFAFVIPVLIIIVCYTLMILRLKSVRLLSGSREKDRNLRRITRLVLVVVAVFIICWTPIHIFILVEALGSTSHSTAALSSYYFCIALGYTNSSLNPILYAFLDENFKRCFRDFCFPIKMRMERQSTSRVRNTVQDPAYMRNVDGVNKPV
T1 sequence (A0ACM8Q262 1-400): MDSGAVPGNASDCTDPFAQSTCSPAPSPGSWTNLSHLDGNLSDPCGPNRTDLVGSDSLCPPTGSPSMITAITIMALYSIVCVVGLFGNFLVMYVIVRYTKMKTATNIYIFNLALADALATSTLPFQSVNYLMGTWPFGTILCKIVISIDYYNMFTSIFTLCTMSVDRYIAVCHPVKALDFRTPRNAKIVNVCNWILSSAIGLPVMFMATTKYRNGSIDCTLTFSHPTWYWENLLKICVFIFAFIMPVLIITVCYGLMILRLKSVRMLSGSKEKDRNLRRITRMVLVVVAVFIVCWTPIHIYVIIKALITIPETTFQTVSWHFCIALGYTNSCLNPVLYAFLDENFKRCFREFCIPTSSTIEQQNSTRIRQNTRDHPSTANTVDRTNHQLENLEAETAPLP

Work on `O=C(Cc1cccc([N+](=O)[O-])c1)N1CCCCC1CN1CCCC1` (racemic) [Example 1, (2R,S)-1-(3-nitrophenylacetyl)-2-(1-Pyrrolidinylmethyl) piperidine hydrochloride] yielded an ED50 [1, 4] of 0.97 mg/kg, a Ki [2, 5] of over 10000 nM and a Ki [3, 6] of 5.96 nM.

`O=C(Cc1cccc(C(F)(F)F)c1)N1CCCCC1CN1CCCC1` (racemic) [Example 2, (2R,S)-1-(3-trifluoromethylphenylacetyl)-2-(1-pyrrolidinylmethyl)piperidinehydrochloride hemihydrate] showed an ED50 ([1]; oral (os), read-out: ED50 oral) of 4.61 mg/kg, an ED50 [1, 4] of 0.43 mg/kg and a Ki [2, 5] of over 10000 nM. The Ki [3, 6] was 3.07 nM.

In the case of `O=C(Cc1ccc([N+](=O)[O-])cc1)N1CCCCC1CN1CCCC1` (racemic) [Example 4, (2R,S)-1-(4-nitrophenylacetyl)-2-(1-pyrrolidinylmethyl)piperidine hydrochloride], the ED50 ([1]; oral (os), read-out: ED50 oral) is reported as 5.45 mg/kg, the ED50 [1, 4] is reported as 0.55 mg/kg and the “% Protection (percent number of mice doubling the initial reaction time)” value ([1]; subcutaneous) is reported as 80%. It also gave a Ki [2, 5] of 12800 nM and a Ki [3, 6] of 37.9 nM.

For `O=C(Cc1ccc(C(F)(F)F)cc1)N1CCCCC1CN1CCCC1` (racemic) [Example 5, (2R,S)-1-(4-trifluoronethylphenylacetyl)-2-(1pyrrolidinylmethyl)piperidine hydrochloride], the ED50 ([1]; oral (os), read-out: ED50 oral) was 1.08 mg/kg, the ED50 [1, 4] was 0.23 mg/kg and the “% Protection (percent number of mice doubling the initial reaction time)” value ([1]; subcutaneous) was 100%. The Ki [2, 5] was 3090 nM and the Ki [3, 6] was 3.59 nM.

With `O=C(Cc1ccc(Br)cc1)N1CCCCC1CN1CCCC1` (racemic) [Example 6, (2R,S)-1-(4-bromophenylacetyl)-2-(1-pyrrolidinylmethyl)piperidine hydrochloride] the ED50 ([1]; oral (os), read-out: ED50 oral) was 4.12 mg/kg, the ED50 [1, 4] was 0.52 mg/kg and the “% Protection (percent number of mice doubling the initial reaction time)” value ([1]; subcutaneous) was 80%. The Ki [2, 5] was 3130 nM and the Ki [3, 6] was 6.61 nM.

With `O=C(Cc1ccc(C(F)(F)F)cc1)N1CCCC[C@H]1CN1CCCC1` [Example 3, (2S)-1-(4-trifluoromethylphenylacetyl)-2-(1-pyrrolidinylmethyl) piperidine hydrochloride sesquihydrate] the ED50 ([1]; oral (os), read-out: ED50 oral) was 0.67 mg/kg, the ED50 [1, 4] was 0.14 mg/kg and the Ki ([2]; read-out: Ki, opiate receptor binding, μ, guinea pig brain homogenate, 25° C., 40 min) was 2540 nM. The Ki [3] was 4.05 nM.
